The record followed here is PMC8709997, “Long-term memory T cells as preventive anticancer immunity elicited by TuA-derived heteroclitic peptides” (Journal of Translational Medicine, 2021).

One test concerns the target H-2 Db molecule (Mus musculus, UniProt P01899). In words: Peptide binding to H-2 Db on TAP-deficient RMA-S cells (flow cytometry). In kind it is cell-based, murine. The settings on record: RMA-S cells loaded with sub-optimal 1 μM peptide, mean fluorescence intensity. How it is done:
In order to experimentally confirm the binding and stability of heteroclitic peptides to H-2 Db molecule, the H-2 Db positive RMA-S cell line was loaded with a sub-optimal concentration of 1 μM of peptides.
Supplementary file 12967_2021_3194_MOESM1_ESM.pptx: Additional file 1: Fig. S1. Predicted affinity of wt and hPep peptides. The affinity to H2-Db were predicted by NetMHCpan 4.1 for wt and heteroclitic peptides. The affinity (Aff) values are expressed in nanomolarity (nM). The selected hPep peptides are indicated for both E7 and Trp2 peptides. Fig. S2. Experimental affinity of wt and hPep peptides. Binding to H2-Db molecule was assessed in TAP-deficient RMA-S cells loaded with the indicated peptides. Mean fluorescence intensity at flow cytometer indicates binding levels of peptides to HLA molecules. Fig. S3. Comparison of short-term and long-term immunization. The curve of tumor growth in the short-term and long-term immunization experiments for the B16 (A) and TC1 (B) is indicated for each individual animal. The Kaplan-Meyer curves for the B16 (C) and TC1 (D) is indicated.
On the technique in general: In flow cytometry, cells or beads pass a laser one at a time.

Test [1] deals with TC-1 tumor cells expressing HPV16 E7 protein. Nature of the test: Preventive immunization and TC1 tumor challenge. In kind it is in vivo, C57BL/6 mice. Here is the method:
(§1) C57BL/6 (H-2-Db) female mice, 8 weeks old, were purchased from Harlan (Udine, Italy). All animals were housed at the Animal Facility of the Istituto Nazionale Tumori “Pascale” (Naples, Italy). Mice were housed in number of 2–3 per cage and maintained in a conventional facility on a 12 h light:12 h dark cycle (lights on at 7:00 a.m.) in a temperature-controlled room (22 ± 2 °C) and with food and water ad libitum at all times. The experimental protocols were in compliance with the European Communities Council directive (86/609/EEC).
(§2) Mouse melanoma B16F10 (ATCC, CRL-6323) cells were cultured in DMEM medium supplemented with 10% heat inactivated FBS, 100 U/ml penicillin and […] streptomycin (Invitrogen, Carlsbad, CA) at 37 °C with 5% CO2. Cells were tested for mycoplasma before inoculation in mice (ATCC®, 30-1012 K™). Mouse lung TC-1 tumor cells expressing HPV16 E7 protein (ATCC, CRL-2493), were cultured in RPMI medium supplemented with 10% heat inactivated FBS, 100 U/ml penicillin and […] streptomycin (Invitrogen, Carlsbad, CA), HEPES 10 mM, MEM 0.1 mM and Na Piruvate 1 mM at 37 °C with 5% CO2.
(§3) B16F10 and TC1 cells were harvested in exponential growth phase by trypsinization and washed twice with ice-cold PBS. C57BL/6 mice were subcutaneously injected with 5 × 10^4 and 1 × 10^5 cells/mouse of B16F10 or TC1 respectively on the right back flank. A cell aliquot (200μL) containing 1 × 10^6 cells was loaded in 21G syringes for intra-splenic injection. The tumor size was measured and documented every two days with a caliper, starting on day 7, and calculated using the formula (AxB^2)/2 (A as the largest and B is the smallest diameter of tumor). Tumor growth was documented as mean tumor size with standard error. To record the survival of the tumor-bearing mice, either natural death or a tumor diameter greater than 1500 mm^3 leading to death was counted as death.
(§4) Cyclophosphamide (CTX) (Endoxan®, Baxter) (10 mg/Kg) and Paclitaxel (PTX) (Taxol®, BMS) (5 mg/Kg) diluted with phosphate-buffered saline (PBS) were administered via intraperitoneal injection (i.p.). The dose was extrapolated to human equivalent dose (HED). Metronomic Chemotherapy was weekly administered one day before the vaccine administration until the end of the experiment. An anti-mouse PD-1 MAb (BioXCell, West Lebanon, NH USA) was used as checkpoint inhibitor (CI) and administered via intraperitoneal injection (i.p.) at a dose of 100 μg.
Preventive experimental setting was performed as follow: C57BL/6 mice were immunized once a week for 4 weeks by subcutaneous administration (s.c.) with WT 100ug or a mix of equimolar ratio of heteroclitic peptides (100 ug tot) formulated in 50ug PolyI:C. At the end of the immunization protocol, a group of animals were implanted with of B16F10 or TC1 cell lines (short-term memory group). In parallel, a second group was left for 2 months without any further treatment before implantation of the same number of cells (long-term memory group). Immunizations were performed in combination with metronomic chemotherapy (MCT) and CI [24–26]. One group was treated only with MCT and CI (MCT + CI group). Control mice were treated with endotoxin-free phosphate-buffered saline (PBS). At the time of sacrifice, whole blood was collected by puncture of the sinus retro-orbital vein prior analgesia with oxybuprocaine chlorhydrate (Fig. 1).
Animals were immunized in a preventative setting with either the wt or the heteroclitic E7 and Trp2 peptides. At the end of the full vaccination protocol, animals were challenged with 5 × 10^5 TC1 or 1 × 10^4 B16 tumor cells, respectively.
In order to assess the anti-tumor efficacy of the long-term memory induced by the vaccination, animals were left free of active immunization for 2 months. Animals were then challenged with 5 × 10^5 TC1 or 1 × 10^4 B16 tumor cells, respectively. […] Similarly, in the TC1 model, the long-term immunity was unable to control tumor growth as for the short-term immune response. […]

Test [2] deals with IFN-γ secreting T cells. Nature of the test: IFN-γ ELISpot on PBMCs, TC1 experimental group. The conditions noted are these: PBMC pools re-stimulated with 10 ug/ml single peptides. In kind it is cell-based, C57BL/6 mice. How it is done: (§5) ELISPOT was performed according to BD Biosciences manufacturer instructions (BD ELISPOT Mouse IFN-γ ELISPOT Set cod. 551,083). 5 × 10^5 splenocytes or 2 × 10^5 PBMCs from pooled samples were counted, plated in each well and stimulated with 10ug/ml of single peptides used for the immunization and incubated for 24-26 h. As negative and positive control, peptide diluents PBS and 5ug/ml of phorbol myristate acetate (PMA, Sigma-Aldrich) were used respectively. Plates were read with an AID EliSpot Reader Systems (AID GmbH, Strassberg, Germany). The results were calculated as spot forming counts as a mean of a duplicate count from the specific antigen stimulation minus the negative control.
(§6) Fig. 5 Immunological evaluation in the short-term immunization. Blood samples were drawn during the experiment from retro-orbital veins and PBMCs were isolated. Interferon-γ (IFN-γ) secreting T cells were evaluated in vitro after O/N re-stimulation with individual peptides. Pool of samples were used for each experimental groups. A and B B16 group; C and D TC1 group. SFU IFN-γ spot forming units
Fig. 7 Immunological evaluation in the long-term immunization. Blood samples were drawn during the experiment from retro-orbital veins and PBMCs were isolated. Interferon-γ (IFN-γ) secreting T cells were evaluated in vitro after O/N re-stimulation with individual peptides. […]

In test [3] the test system is IFN-γ secreting T cells. Nature of the test: IFN-γ ELISpot on PBMCs, B16 experimental group. In kind it is cell-based, C57BL/6 mice. The settings on record: for vaccine-specific IFN-γ immune response: PBMC pools re-stimulated with 10 ug/ml single peptides; for cross-reactivity with the wt: PBMC pools, IFN-γ ELISpot. How it is done:
as §5, §6
Fig. 7 Immunological evaluation in the long-term immunization. Blood samples were drawn during the experiment from retro-orbital veins and PBMCs were isolated. Interferon-γ (IFN-γ) secreting T cells were evaluated in vitro after O/N re-stimulation with individual peptides. Pool of samples were used for each experimental groups. A–C B16 group; D–F TC1 group. WT NEG animals in the WT group with no sign of tumor growth, HET NEG animals in the Heteroclitic group with no sign of tumor growth

The next test deals with B16F10 cells. In words: Preventive immunization and B16 tumor challenge. In kind it is in vivo, C57BL/6 mice. Here is the method:
as §1, §2, §3, §4
Preventive experimental setting was performed as follow: C57BL/6 mice were immunized once a week for 4 weeks by subcutaneous administration (s.c.) with WT 100ug or a mix of equimolar ratio of heteroclitic peptides (100 ug tot) formulated in 50ug PolyI:C. […]

The mark [4] stands for this setting: long-term: TC1 challenge 2 months after vaccination.

Numbering of substitutions follows the chain as printed. Several values for one entry are separate records, joined by “and”; a condition that tells them apart may be missing. Identical values can stand only once.

Sequence of H-2 Db molecule (P01899 whole entry, looked up): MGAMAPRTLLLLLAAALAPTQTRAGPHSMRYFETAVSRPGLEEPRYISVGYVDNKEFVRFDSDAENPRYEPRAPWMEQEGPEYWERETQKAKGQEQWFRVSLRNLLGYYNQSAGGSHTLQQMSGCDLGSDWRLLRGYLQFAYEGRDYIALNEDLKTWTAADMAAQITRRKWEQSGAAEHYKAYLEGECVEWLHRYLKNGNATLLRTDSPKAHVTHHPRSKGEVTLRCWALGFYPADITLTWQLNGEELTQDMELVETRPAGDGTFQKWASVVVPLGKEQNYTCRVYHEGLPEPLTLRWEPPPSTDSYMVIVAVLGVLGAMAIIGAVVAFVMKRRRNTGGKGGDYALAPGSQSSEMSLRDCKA

Take “RAHANIVTF [A4-E7, heteroclitic E7 peptide, Y4 to A substitution]”: at H-2 Db molecule, the “binding to the H2-Db molecule relative to wt” value is on record as “equivalent or higher than the wt”.

On to “RAHYHIVTF [H5-E7, heteroclitic E7 peptide, N5 to H substitution]”, for which the “binding to the H2-Db molecule relative to wt” value at H-2 Db molecule was “complete loss of binding”.

Regarding RAHYNIVTF [WT-E7], in test [1] (setting [4]), the “animals still alive (n/N)” value was 3/7 and the tumor-free animals came out at 1. In addition, the “effect on tumor growth” value in test [1] (long-term: TC1 challenge 2 months after vaccination, compared to controls) is reported as “significantly delayed”. For the same sequence, the “animals showing late tumor growth” value in test [1] (short-term TC1, growth at day 42 and day 51 post-challenge, follow up to day 60, data not shown) was “two animals”. Besides, the survival in test [1] (short-term: TC1 challenge at end of vaccination) came out at 100%. Also, the “effect on tumor growth” value in test [1] (short-term: TC1 challenge at end of vaccination, up to day 34) is reported as “completely inhibit the tumor growth”.

As for “RAIYNIVTF [I3-E7, heteroclitic E7 peptide, H3 to I substitution]”, on H-2 Db molecule, the “binding to the H2-Db molecule relative to wt” value was “equivalent or higher than the wt”. Also, the “vaccine-specific IFN-γ immune response” value in the test on IFN-γ secreting T cells [2] (long-term setting) and in the test with IFN-γ secreting T cells [2] (short-term setting) was “immunodominant” in each case.

Regarding “SVCDFFVWL [C3-Trp2, heteroclitic Trp2 peptide, Y3 to C substitution]”, the “binding to the H2-Db molecule relative to wt” value on H-2 Db molecule is listed as “equivalent binding”.

As for “SVYAFFVWL [A4-Trp2, heteroclitic Trp2 peptide, D4 to A substitution]”, at H-2 Db molecule, the “binding to the H2-Db molecule relative to wt” value is “equivalent binding”. Moreover, in the test on IFN-γ secreting T cells [3] (long-term setting), the “vaccine-specific IFN-γ immune response” value is recorded as “immunodominant” and the “cross-reactivity with the wt” value is “low cross-reactivity”. In addition, in the test with IFN-γ secreting T cells [3] (short-term setting), the “vaccine-specific IFN-γ immune response” value was “immunodominant” and the “cross-reactivity with the wt” value is on record as “low cross-reactivity”.

As to SVYDFFVWL [WT-Trp2], the “vaccine-specific IFN-γ immune response” value in the test with IFN-γ secreting T cells [3] (long-term setting) was “strong and comparable”; in the test on IFN-γ secreting T cells [3] (short-term setting) it was “strong and comparable”. In addition, the survival of animals result in the test on B16F10 cells (long-term: B16 challenge 2 months after vaccination, day 27 post-challenge) is given as “all animals in the wt group reached the threshold for euthanasia”. Further, the “effect on tumor growth” value in the test with B16F10 cells (short-term: B16 challenge at end of vaccination) is reported as “significantly delay tumor growth”. Further, the “animals still alive (n/N)” value with B16F10 cells (short-term: B16 challenge at end of vaccination, 34 days post-challenge, 100 ug peptide s.c. weekly x4 in 50 ug PolyI:C, with MCT and CI) is recorded as 2/6. In the test on B16F10 cells (short-term: B16 challenge at end of vaccination, 34 days post-challenge, with PolyI:C, MCT and CI), the “animals still alive / survival” value is 33.3% and 33%.

As for “SVYDNFVWL [N5-Trp2, heteroclitic Trp2 peptide, F5 to N substitution]”, the “binding to the H2-Db molecule relative to wt” value on H-2 Db molecule is “much better than the wt”.
